Marks after values point to notes of the source that are not given here.
experiment: Measurement of LogP values by HPLC on reversed phase columns (EEC directive 79/831 Annex V.A8); assay type: physicochemical; settings: not given
Procedure, shortened: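 LogP measured by reversed-phase HPLC following EEC directive 79/831 Annex V.A8. Lambda-max taken from UV spectra at 200–400 nm at chromatographic peak maxima; diastereoisomer values listed separately.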

**Q.** With `COc1ccc(CNC(=O)c2snc(N)c2Cl)cc1F` [I-240] as the compound, how does the LogP read?
**A.** 1.91[a]

**Q.** For `Cc1c(N)nsc1C(=O)NCc1ccc(C(F)F)cc1` [I-156], which LogP is on record?
**A.** 1.66[a]

**Q.** For `Nc1nsc(C(=O)NCC2CCCCC2)c1Br` [I-539], which LogP is on record?
**A.** 2.51[a]

**Q.** Which LogP does the source give for `COc1ccc(CNc2nsc(C(=O)NC(C)c3ccc(C(F)(F)F)cc3)c2Cl)cc1` (centres unmarked) [I-1276] here?
**A.** 4.23[a]

**Q.** Which “LogP [a]” value does the source give for `O=C(NCC1CCOC1)c1snc(Cl)c1Cl` (centres unmarked) [E-II-007] here?
**A.** 1.84^[a]

**Q.** Which LogP does the source give for `COc1ccc(CNc2nsc(C(=O)NCC3OCCc4ccccc43)c2Cl)cc1` (centres unmarked) [I-1208] here?
**A.** 3.72[a]

**Q.** With `Cc1cc(Cl)ccc1CNC(=O)c1snc(N)c1Cl` [I-389] as the compound, how does the LogP read?
**A.** 2.60[a]

**Q.** With `COc1ccc(CNc2nsc(C(=O)NC(C)Cc3ccco3)c2Cl)cc1` (centres unmarked) [I-1239] as the compound, how does the LogP read?
**A.** 3.55[a]

**Q.** For `CC(C)(NC(=O)c1snc(Cl)c1Cl)C1CCCCC1` [E-II-013], which “LogP [a]” value is on record?
**A.** 5.39^[a]

**Q.** Which “LogP [a]” value does the source give for `CCOC(=O)c1snc(N)c1Br` [E-VII-060] here?
**A.** 1.93^[a]

**Q.** For `O=C(Nc1ccccc1)c1snc(N=C(c2ccccc2)c2ccccc2)c1Cl` [II-107], which “LogP [a]” value is on record?
**A.** 4.62^[a]

**Q.** Which “LogP [a]” value does the source give for `O=C(NCc1ccc(F)c(F)c1F)c1snc(N=S2CCCC2)c1F` [II-078] here?
**A.** 1.55^[a]

**Q.** For `CCc1ccccc1C(C)N(C(=O)c1snc(N)c1Cl)C1CC1` (centres unmarked) [I-887], which LogP is on record?
**A.** 3.37[a]

**Q.** For `COc1ccc(CNc2nsc(C(=O)N(Cc3ccc(Cl)cc3Cl)C(C)C)c2Cl)cc1` [I-944], which LogP is on record?
**A.** 5.39[a]

**Q.** For `CC(c1ccc(Cl)cc1Cl)N(C(=O)c1snc(N)c1Cl)C1CC1` (centres unmarked) [I-953], which LogP is on record?
**A.** 3.50[a]

**Q.** With `O=C(NC1CCCc2ccccc21)c1snc(Cl)c1Cl` (centres unmarked) [E-II-021] as the compound, how does the “LogP [a]” value read?
**A.** 4.07

**Q.** And the “LogP [b]” value?
**A.** 3.98

**Q.** With `COc1ccc(CNc2nsc(C(=O)N(Cc3cc(C)cc(C)c3)C3CC3)c2Cl)cc1` [I-872] as the compound, how does the LogP read?
**A.** 4.90[a]

**Q.** Which results are given for `COc1ccc(CNc2nsc(C(=O)N3CCCCC3)c2Cl)cc1` [II-108]?
**A.** LogP [a]: 3.22; LogP [b]: 3.16

**Q.** Which LogP does the source give for `C[C@H](NC(=O)c1cc(N)ns1)C1CCCCC1` [I-006] here?
**A.** 2.09[a]

**Q.** With `Nc1nsc(C(=O)Nc2cccc(F)c2)c1Cl` [I-865] as the compound, how does the LogP read?
**A.** 2.07[a]

**Q.** With `Cc1ccc(S(C)=Nc2nsc(C(=O)NCC3CCCCC3)c2F)cc1` (centres unmarked) [II-054] as the compound, how does the “LogP [a]” value read?
**A.** 3.10^[a]

**Q.** Which LogP does the source give for `COc1ccc(CNc2nsc(C(=O)NCc3cscc3C)c2Cl)cc1` [I-1201] here?
**A.** 3.61[a]

**Q.** With `COc1ccc(CNc2nsc(C(=O)NC(C)c3ccc(Cl)cc3Cl)c2Cl)cc1` (centres unmarked) [I-1256] as the compound, how does the LogP read?
**A.** 4.61[a]

**Q.** For `CCCS(CC)=Nc1nsc(C(=O)NCC2CCCCC2)c1Cl` (centres unmarked) [II-086], which “LogP [c]” value is on record?
**A.** 1.90^[c]

**Q.** With `O=C(NCc1ccc(Cl)cc1)c1snc(NCC(F)(F)F)c1Cl` [I-578] as the compound, how does the LogP read?
**A.** 3.44[a]

**Q.** For `CC(c1ccccc1)N(C(=O)c1snc(N)c1Cl)C1CC1` (centres unmarked) [I-886], which LogP is on record?
**A.** 2.73[a]

**Q.** Which LogP does the source give for `COc1ccc(CNc2nsc(C(=O)NCc3ccc(F)c(Oc4ccccc4)c3)c2Cl)cc1` [I-223] here?
**A.** 4.34[a]

**Q.** Which LogP does the source give for `COc1ccc(CN(C)c2nsc(C(=O)N[C@@H](C)C3CCCCC3)c2Cl)cc1` [I-087] here?
**A.** 5.51[a]

**Q.** Which LogP does the source give for `Nc1cc(C(=O)NCC2CCCCC2)sn1` [I-005] here?
**A.** 1.92[a]

**Q.** Which LogP does the source give for `CC(=O)N(C(C)=O)c1nsc(C(=O)NCc2ccccc2F)c1Cl` [I-101] here?
**A.** 2.64[a]

**Q.** With `Cc1ccc(S(C)=Nc2nsc(C(=O)NCC3CCCCC3)c2Cl)cc1` (centres unmarked) [II-050] as the compound, how does the “LogP [a]” value read?
**A.** 3.51^[a]

**Q.** For `COc1ccc(CNc2nsc(C(=O)N3CCCc4cc(C)ccc43)c2Cl)cc1` [II-099], which “LogP [a]” value is on record?
**A.** 4.24

**Q.** What about the “LogP [b]” value of the same compound?
**A.** 4.15

**Q.** With `Nc1cc(C(=O)NCc2ccc(F)c(F)c2)sn1` [I-166] as the compound, how does the LogP read?
**A.** 1.54[a]

**Q.** With `Cc1cccc2c1N(C(=O)c1snc(N)c1Cl)CCC2` [II-021] as the compound, how does the “LogP [a]” value read?
**A.** 2.43

**Q.** And the “LogP [b]” value?
**A.** 2.36

**Q.** With `COc1ccc(CNc2nsc(C(=O)NC3CCOCC3)c2Cl)cc1` [I-1190] as the compound, how does the LogP read?
**A.** 2.50[a]

**Q.** Which LogP does the source give for `Cc1c(N)nsc1C(=O)NCc1c(F)ccc(F)c1F` [I-596] here?
**A.** 1.49[a]

**Q.** For `Nc1nsc(C(=O)NCCc2ccccc2)c1Cl` [I-851], which LogP is on record?
**A.** 1.98[a]

**Q.** For `Nc1cc(C(=O)Nc2ccccc2)sn1` [I-855], which LogP is on record?
**A.** 1.41[a]

**Q.** Which LogP does the source give for `Nc1nsc(C(=O)NCC2CCCCC2C(F)(F)F)c1Cl` (centres unmarked) [I-1566] here?
**A.** 2.63[a]

**Q.** For `O=C(NCc1ccccc1F)c1snc(N(Cc2ccccc2)Cc2ccccc2)c1-c1ccc(F)cc1` [I-320], which LogP is on record?
**A.** 5.45[a]

**Q.** Which LogP does the source give for `Nc1nsc(C(=O)NOc2ccccc2)c1Cl` [I-1033] here?
**A.** 1.53[a]

**Q.** For `COc1ccc(CNc2nsc(C(=O)NCc3ccn(C)n3)c2Cl)cc1` [I-1238], which LogP is on record?
**A.** 2.39[a]

**Q.** With `N#Cc1cccc(CNC(=O)c2snc(N)c2Cl)c1` [I-1289] as the compound, how does the LogP read?
**A.** 1.41[a]

**Q.** With `Nc1cc(C(=O)NCc2c(F)ccc(F)c2F)sn1` [I-165] as the compound, how does the LogP read?
**A.** 1.51[a]

**Q.** Which LogP does the source give for `CCn1cc(CNC(=O)c2snc(NCc3ccc(OC)cc3)c2Cl)c(C(F)F)n1` [I-1198] here?
**A.** 3.09[a]

**Q.** Which LogP does the source give for `COc1ccc(CNc2nsc(C(=O)NCCC3CCOC3)c2Cl)cc1` (centres unmarked) [I-1196] here?
**A.** 2.59[a]

**Q.** Which LogP does the source give for `COc1ccc(CNc2nsc(C(=O)NC3(C4CCCCC4)CC3)c2Cl)cc1` [I-113] here?
**A.** 4.69[a]

**Q.** Which “LogP [a]” value does the source give for `O=C(O)c1snc(N(Cc2ccccc2)Cc2ccccc2)c1Br` [E-VIII-004] here?
**A.** 3.83^[a]

**Q.** Which LogP does the source give for `Cc1ccc(CN(C(=O)c2snc(N)c2Cl)C2CC2)c(C)c1` [I-152] here?
**A.** 3.09[a]

**Q.** With `Nc1nsc(C(=O)NCc2ccc(F)cc2)c1Br` [I-831] as the compound, how does the LogP read?
**A.** 1.82[a]

**Q.** For `C[C@H](NC(=O)c1snc(N)c1-c1ccc(F)cc1)C1CCCCC1` [I-333], which LogP is on record?
**A.** 3.29[a]

**Q.** Which LogP does the source give for `COc1ccc(CNC(=O)c2cc(N)ns2)cn1` [I-099] here?
**A.** 0.86[a]

**Q.** For `COc1ccc(CNc2nsc(C(=O)NCc3ccc(C(C)(C)C)cc3)c2Cl)cc1` [I-1199], which LogP is on record?
**A.** 4.69[a]

**Q.** Which LogP does the source give for `Nc1nsc(C(=O)NCCc2ccccc2F)c1Cl` [I-972] here?
**A.** 2.11[a]

**Q.** Which LogP does the source give for `C[C@H](NC(=O)c1snc(N)c1Br)C1CCCCC1` [I-818] here?
**A.** 2.84[a]

**Q.** For `O=C(NC1CCCCC1c1ccccc1)c1snc(NC(=O)C2CC2)c1Cl` (centres unmarked) [I-302], which LogP is on record?
**A.** 3.19[a]

**Q.** Which LogP does the source give for `COc1ccc(CNc2nsc(C(=O)NCCc3ccccn3)c2Cl)cc1` [I-1255] here?
**A.** 1.52[a]

**Q.** With `COc1ccc(CNc2nsc(C(=O)N(Cc3cc(C)c(C)cc3C)C3CC3)c2Cl)cc1` [I-889] as the compound, how does the LogP read?
**A.** 5.11[a]

**Q.** For `Nc1cc(C(=O)NCC2CCC(O)C2)sn1` (centres unmarked) [I-775], which LogP is on record?
**A.** 0.36[a]

**Q.** For `COc1ccc(CNc2nsc(C(=O)NCc3ncc(C(F)(F)F)cc3Cl)c2Cl)cc1` [I-268], which LogP is on record?
**A.** 4.29[a]

**Q.** For `COc1ccc(CNc2nsc(C(=O)NCc3cc(OC)ccc3OC)c2Cl)cc1` [I-1230], which LogP is on record?
**A.** 3.59[a]

**Q.** Which LogP does the source give for `CCOc1c(N)nsc1C(=O)NCC1(O)CCCCC1` [I-726] here?
**A.** 1.55[a]

**Q.** Which LogP does the source give for `CCC1CC(C)CC(CC)C1NC(=O)c1snc(NCc2ccc(OC)cc2)c1Cl` (centres unmarked) [I-1191] here?
**A.** 6.02[a]

**Q.** With `COc1ccc(CNC(=O)c2cc(N)ns2)c(F)c1` [I-171] as the compound, how does the LogP read?
**A.** 1.48[a]

**Q.** Which LogP does the source give for `O=C(NCCc1ccccc1)c1snc(N(Cc2ccccc2)Cc2ccccc2)c1-c1ccc(F)cc1` [I-983] here?
**A.** 5.68[a]

**Q.** Which LogP does the source give for `CCOc1c(N)nsc1C(=O)NCc1c(F)cc(F)cc1F` [I-724] here?
**A.** 2.09[a]

**Q.** For `Cc1cc(C)c(CN(C(=O)c2snc(N)c2Cl)C2CC2)c(C)c1` [I-116], which LogP is on record?
**A.** 3.46[a]

**Q.** For `Nc1nsc(C(=O)NCC2CCC(Cl)CC2)c1Cl` (centres unmarked) [I-1579], which LogP is on record?
**A.** 2.20[a]

**Q.** With `COc1ccc(CNc2nsc(C(=O)NC3CC(C)(C)Cc4oc(C)cc43)c2Cl)cc1` (centres unmarked) [I-1325] as the compound, how does the LogP read?
**A.** 4.74[a]

same assay, conditions: HPLC LC-UV, acidic range, 0.1% formic acid in water and acetonitrile as eluent

**Q.** Which chromatographic logP does the source give for `O=C(O)c1snc(N(Cc2ccccc2)Cc2ccccc2)c1C(F)F` [E-VIII-009, 3-(dibenzylamino)-4-(difluoromethyl)-1,2-thiazole-5-carboxylic acid] here?
**A.** 3.78
